{
  "source": "patent US20220370366A1",
  "about": "“TABLETS CONTAINING CILOFEXOR AND PHARMACEUTICALLY ACCEPTABLE CARRIERS” (Gilead Sciences, Inc., priority 2019, published 2022)",
  "key": {"[1]": {"assay": "Single dose PK (AUCinf) in Phase 1 studies, effect of meal type on Compound 1 exposure and variability", "format": "in vivo, human", "settings": "for AUC(0-inf): human, in vivo, oral", "protocol": "Part B (Adaptive Cohorts) is as follows: Based on available safety, pharmacokinetic (“PK”), and/or pharmacodynamic (“PD”) data from Part A, total daily doses for Part B (Cohorts 5 and 8) were chosen between 1 and 600 mg as well as frequency of dosing (once daily or twice a day) and meal conditions for dosing (fasted, low fat, moderate fat, or high fat meal). Once determined, dose level, frequency of dosing, and meal conditions were consistent within a cohort.\nFed State Dosing: Study drug(s) were administered at approximately the same time each day and within 5 minutes of completing a standardized meal. The meal was initiated 30 minutes prior to study drug administration. Subjects fasted until after collection of the 4-hour PK sample, relative to study drug dosing. Meal fat content (low fat, moderate fat, or high fat) was determined based on available data from […] cohorts.\n(§1) Treatment A: Single dose of SEL 18 mg (1×18 mg tablet)+Compound 1 30 mg (1×30 mg tablet) coadministered orally in the morning within 5 minutes of completing a high-fat meal Treatment C: Single dose of Compound 1 30 mg (1×30 mg tablet) administered orally in the morning in the fasted state\nTreatment I: Single dose of Compound 1 30 mg (1×30 mg tablet) administered orally in the morning within 5 minutes of completing a light meal\n(§2) Fasted Administration (Treatment C): Study drug(s) were administered in the morning following an overnight fast (no food or drinks except water for at least 10 hours). Subjects continued to fast until after collection of the 4-hour PK sample, relative to (first) study drug dosing. Additionally, subjects were restricted from water consumption 1 hour before until 2 hours after each study drug dosing, except for the 240 mL given with each study drug administration. Water may be consumed by subjects following the 2-hour blood draw for the remainder of the collection period. A meal (standardized lunch) was provided to subjects after the 4 hour postdose blood draw.\nLight Meal Administration (Treatment I): Study drug(s) were administered with food and with 240 mL of water. Following an overnight fast (no food or drinks except water for at least 10 hours), a meal was initiated 30 minutes prior to study drug administration. The dose was administered at or within 5 minutes of the subjects completing (100%) of the provided light meal containing ˜400 kcal with ˜20% of the calories from fat. Subjects fasted for 4 hours after study drug administration. A meal (standardized lunch) was provided to subjects after the 4-hour post-dose blood draw. Additionally, water and other fluids was withheld 1 hour before until 2-hours after dose administration other than the water provided with dosing and beverages provided with the standardized meal (where applicable). Water may be consumed by subjects following the 2-hour blood draw for the remainder of the collection period.\nHigh-Fat Meal Administration (Treatment A): Study drug(s) were administered with food and with 240 mL of water. Following an overnight fast (no food or drinks except water for at least 10 hours), a meal was initiated 30 minutes prior to study drug administration. The dose was administered at or within 5 minutes of the subjects completing (100%) of the provided high-fat meal containing ˜800-1000 kcal with -50% of calories from fat (approximately 150, 250, and 500-600 kcal from protein, carbohydrate, and fat, respectively). Subjects fasted for 4 hours after study drug administration. A meal (standardized lunch) was provided to subjects after the 4-hour post-dose blood draw. Additionally, water and other fluids was withheld 1 hour before until 2 hours after dose administration other than the water provided with dosing and beverages provided with the standardized meal (where applicable). Water may be consumed by subjects following the 2-hour blood draw for the remainder of the collection period.\nCohort 10 (Compound 1 100 mg, formulation 9 in Table 3): […]"}, "[2]": {"assay": "Single dose PK (AUCinf) in Phase 1 studies, effect of drug load on Compound 1 exposure and variability", "format": "in vivo, human", "settings": "for AUC(0-inf): human, in vivo, oral, fasted, healthy volunteers, read-out: Mean (% CV) Compound 1 AUCinf", "description": "Part A: prespecified cohorts (Cohorts 1-3): Randomized, partially blind, placebo-controlled, single- and multiple-doses with staggered dose-escalations. 60 unique subjects; 15 per cohort (12 Compound 1, 3 placebo-to-match (“PTM”))\nPart A (Single- and Multiple-Ascending Doses, Pre-Specified Cohorts) proceeded in 4 staggered, pre-specified, dose-escalation cohorts and were governed by study specific stopping criteria. Within each cohort, 15 unique subjects were randomized 4:1 to receive blinded Compound 1 (N=12) or PTM (N=3). All study drugs in Part A were administered in a fasted state. Within each cohort, dose escalation from single-dose (Period 1) to multiple-dose (Period 2) were permitted after evaluation of cumulative blinded safety data up to and through Day 3 of the same cohort.\nFasted State Dosing: Study drug(s) were administered at approximately the same time each day following an overnight fast (no food or drinks except water, for at least 10 hours). Subjects continued to fast until after collection of the 2-hour PK sample, relative to study drug dosing.\nas §1, §2\nEligible subjects received the following treatment: Single dose of 100 mg Compound 1 (1×100 mg tablet), administered orally in the morning on Day 1 following an overnight fast.\nEach dose of study drug was administered in the morning on Day 1 with 240 mL of still (non-carbonated) water following an overnight fast (no food or drinks except water, for at least 10 hours). Subjects continued to fast and were restricted from food intake until after collection of the 4-hour blood draw. Additionally, subjects were restricted from consumption of water or other fluids 1 hour before until 2 hours after dosing, except for the 240 mL given with the study treatment.\nCohort 10 (Compound 1 100 mg, formulation 9 in Table 3):\nTreatment F: Single dose of Compound 1 (1×100 mg tablet) administered orally in the morning in the fasted state.\n(§3) Compound 1 was administered in the morning following an overnight fast (no food or drinks except water for at least 10 hours). Subjects continued to fast until after collection of the 4-hour PK sample, relative to the (first) study drug dosing. Additionally, subjects were restricted from water consumption 1 hour before until 2 hours after each study drug dosing, except for the 240 mL given with each study drug administration. Water was optionally consumed by subjects following the 2-hour blood draw for the remainder of the collection period. A meal (standardized lunch) is provided to subjects after the 4-hour post-dose blood draw.\nSingle dose pharmacokinetic exposure parameters (AUCinf) of Compound 1 from multiple Phase 1 studies in healthy volunteers which utilized various drug loads of Compound 1 were compared to determine if Compound 1 drug load impacted the variability and/or absolute value of Compound 1 systemic exposure."}, "[3]": {"assay": "Effect of acid-reducing agent (famotidine) on PK of Compound 1 single agent tablet, Cohort 11", "format": "in vivo, human", "settings": "for AUC(0-inf): human, in vivo, oral, fasted, N=20", "protocol": "The objective of Cohort 11 was to assess the effect of gastric acid reducing agents (ARAs) on the PK of Compound 1 single agent tablet using famotidine, a representative H2RA. Compound 1 100 mg strength tablets (as free form equivalent) were used. Famotidine was obtained from a commercially available source.\nTreatment J: Single dose of Compound 1 (1×100 mg tablet) administered orally in the morning in the fasted state.\nTreatment K: Single dose of Compound 1 (1×100 mg tablet) administered orally in the morning 2 hours after famotidine (FAM) (1×40 mg) in the fasted state.\nas §3, with “Study drug(s) were” for “Compound 1 was”, “period.” for “period. A meal (standardized lunch) is provided to subjects after the 4-hour post-dose blood draw.”"}, "[4]": {"settings": "in the drug product, Form I"}, "[5]": {"settings": "drug loads such as 5% and 8% compared to 20% drug load"}},
  "data": [
    {"smiles": "O=C(O)c1ccnc(N2CC(O)(c3ccc(OCc4c(-c5c(Cl)cccc5Cl)noc4C4CC4)cc3Cl)C2)c1", "note": "[Compound 1, cilofexor]", "values": [
      {"measurement": "% GLSM Ratio (90% CI)", "setting": "[1]; 10 mg (5% drug load), AUCinf moderate-fat meal vs fasted", "value": 74.9, "unit": "%"},
      {"measurement": "% GLSM Ratio (90% CI)", "setting": "[1]; 30 mg (20% drug load), AUCinf high-fat meal (+ SEL 18 mg) vs fasted", "value": 142, "unit": "%"},
      {"measurement": "% GLSM Ratio (90% CI)", "setting": "[1]; 30 mg (20% drug load), AUCinf light-fat meal vs fasted", "value": 37.5, "unit": "%"},
      {"measurement": "% GLSM Ratio (90% CI)", "setting": "[1]; 100 mg (12% drug load), AUCinf high-fat meal vs fasted", "value": 91.9, "unit": "%"},
      {"measurement": "% GLSM Ratio (90% CI)", "setting": "[1]; 100 mg (12% drug load), AUCinf light-fat meal vs fasted", "value": 65.7, "unit": "%"},
      {"measurement": "% GLSM Ratio (90% CI)", "setting": "[1]; 100 mg (20% drug load), AUCinf moderate-fat meal vs fasted", "value": 76.6, "unit": "%"},
      {"measurement": "Effect of food on Compound 1 exposure", "setting": "[1]; high-fat meal", "value": "increasing"},
      {"measurement": "AUC(0-inf)", "setting": "[1]; 10 mg, 10 mg (5% drug load), fasted, N=12, read-out: Compound 1 AUCinf (% CV) Fasted", "value": 1260, "unit": "ng·h/mL"},
      {"measurement": "AUC(0-inf)", "setting": "[1]; 10 mg, 10 mg (5% drug load), moderate-fat meal, N=11, read-out: Compound 1 AUCinf (% CV) Fed", "value": 924, "unit": "ng·h/mL"},
      {"measurement": "AUC(0-inf)", "setting": "[1]; 30 mg (20% drug load), high-fat meal, + SEL 18 mg, N=20, read-out: Compound 1 AUCinf (% CV) Fed", "value": 1920, "unit": "ng·h/mL"},
      {"measurement": "AUC(0-inf)", "setting": "[1]; 30 mg, 30 mg (20% drug load), fasted, N=20, read-out: Compound 1 AUCinf (% CV) Fasted", "value": 1870, "unit": "ng·h/mL"},
      {"measurement": "AUC(0-inf)", "setting": "[1]; 30 mg, 30 mg (20% drug load), light-fat meal, N=30, read-out: Compound 1 AUCinf (% CV) Fed", "value": 608, "unit": "ng·h/mL"},
      {"measurement": "AUC(0-inf)", "setting": "[1]; 100 mg, 100 mg (12% drug load), fasted, N=20, read-out: Compound 1 AUCinf (% CV) Fasted", "value": 7650, "unit": "ng·h/mL"},
      {"measurement": "AUC(0-inf)", "setting": "[1]; 100 mg, 100 mg (12% drug load), high-fat meal, N=20, read-out: Compound 1 AUCinf (% CV) Fed", "value": 5930, "unit": "ng·h/mL"},
      {"measurement": "AUC(0-inf)", "setting": "[1]; 100 mg, 100 mg (12% drug load), light-fat meal, N=20, read-out: Compound 1 AUCinf (% CV) Fed", "value": 4170, "unit": "ng·h/mL"},
      {"measurement": "AUC(0-inf)", "setting": "[1]; 100 mg, 100 mg (20% drug load), fasted, N=12, read-out: Compound 1 AUCinf (% CV) Fasted", "value": 7740, "unit": "ng·h/mL"},
      {"measurement": "AUC(0-inf)", "setting": "[1]; 100 mg, 100 mg (20% drug load), moderate-fat meal, N=12, read-out: Compound 1 AUCinf (% CV) Fed", "value": 5020, "unit": "ng·h/mL"},
      {"measurement": "Effect of food on Compound 1 exposure", "setting": "[1]; light-fat and moderate-fat meals", "value": "reducing"},
      {"measurement": "Variability of Compound 1 exposure", "setting": "[1]; light-fat meal", "value": "did not reduce variability"},
      {"measurement": "Variability of Compound 1 exposure", "setting": "[1]; moderate- and high-fat meals compared to fasted administration, irrespective of % drug load", "value": "reduced the variability"},
      {"measurement": "Paired comparison of Compound 1 exposure, percent change with high-fat meal", "setting": "[1]; subjects with low exposure fasted or with light-fat meal vs subjects with high exposure", "value": "greater percent increases in exposure"},
      {"measurement": "Compound 1 exposure", "setting": "[2]; [5]", "value": "increased Compound 1 exposure"},
      {"measurement": "Variability of Compound 1 exposure", "setting": "[2]; [5]", "value": "reduction in variability"},
      {"measurement": "AUC(0-inf)", "setting": "[2]; 30 mg, 30 mg single dose, 5% drug load", "value": 2470, "unit": "ng·h/mL"},
      {"measurement": "AUC(0-inf)", "setting": "[2]; 30 mg, 30 mg single dose, 20% drug load", "value": 1870, "unit": "ng·h/mL"},
      {"measurement": "AUC(0-inf)", "setting": "[2]; 100 mg, 100 mg single dose, 8% drug load", "value": 7480, "unit": "ng·h/mL"},
      {"measurement": "AUC(0-inf)", "setting": "[2]; 100 mg, 100 mg single dose, 12% drug load", "value": 7650, "unit": "ng·h/mL"},
      {"measurement": "AUC(0-inf)", "setting": "[2]; 100 mg, 100 mg single dose, 20% drug load", "value": 7740, "unit": "ng·h/mL"},
      {"measurement": "% GLSM Ratio (90% CI)", "setting": "[3]; 100 mg (12% drug load), AUCinf with famotidine vs alone", "value": "320 (263, 390) %"},
      {"measurement": "Bioavailability of Compound 1 with famotidine pre-treatment", "setting": "[3]; administered two hours after famotidine, 12% drug load", "value": "increase in bioavailability"},
      {"measurement": "AUC(0-inf)", "setting": "[3]; 100 mg (12% drug load), 2 hours after famotidine 40 mg, read-out: Compound 1 AUCinf (% CV) with Famotidine (Test)", "value": 13600, "unit": "ng·h/mL"},
      {"measurement": "AUC(0-inf)", "setting": "[3]; 100 mg (12% drug load), read-out: Compound 1 AUCinf (% CV) Alone (Reference)", "value": 4490, "unit": "ng·h/mL"}
    ]},
    {"smiles": "NC(CO)(CO)CO.O=C(O)c1ccnc(N2CC(O)(c3ccc(OCc4c(-c5c(Cl)cccc5Cl)noc4C4CC4)cc3Cl)C2)c1", "note": "[tromethamine salt of Compound 1]", "values": [
      {"measurement": "Chemical and physical stability", "setting": "[4]", "value": "suitable chemical and physical stability"}
    ]}
  ]
}
